# Laboratory results: US20260263485A1, “AMINOSTEROL COMPOUNDS, AMINOSTEROL-CYCLODEXTRIN FORMULATIONS, AND METHODS OF USING THE SAME” (Enterin, Inc., priority 2022, published 2026)
# “And” between values parts separate entries of the source, which are not always exact repeats. Equal entries are not always repeated. Where two headings read alike, the source gives them in different places.
# Assay: Plasma pharmacokinetics of ENT-03S cyclodextrin formulation after subcutaneous injection
# Type: in vivo, rat
# Details: 20% beta-cyclodextrin formulation, male SD rats
# Method: In this example, ENT-03S was formulated with unmodified beta-cyclodextrin at a concentration of 25 mg/ml ENT-03, and 20% beta-cyclodextrin, pH 7.5, buffered with phosphate.
# Male Sprague-Dawley rats were administered the ENT-03-cyclodextrin formulation subcutaneous at a dose of 10 mg/kg. Blood samples were drawn from the tail vein at various times, the concentrations of ENT-03 determined, and PK parameters determined.
# [1] = SC Dose 10 mg/kg, plasma, individual rats, 10 mg/kg
# [2] = male, Sprague-Dawley, rat, plasma, sc, 10 mg/kg, 10 mg/kg SC, individual rats, read-out: Concentration (ng/ml) Rat 1-3
# [3] = male, Sprague-Dawley, rat, plasma, sc, 10 mg/kg, 10 mg/kg SC, mean, read-out: Concentration Mean
smiles,measurement,setting,value
"C[C@H](CCC[C@H](C)C(=O)O)[C@H]1CCC2C3C(CC[C@@]21C)[C@@]1(C)CC[C@H](NCCCNCCCCNCCCN)C[C@@H]1C[C@H]3O (stereo partly drawn) [ENT-03S, (2S,6R)-6-((3S,5R,7R,10S,13R,17R)-3-((3-((4-((3-aminopropyl)amino)butyl)amino)propyl)amino)-7-hydroxy-10,13-dimethylhexadecahydro-1 H-cyclopenta[a]phenanthren-17-yl)-2-methylheptanoic acid]",Concentration (ng/ml) Rat 1-3,"10 mg/kg SC, 2 h, individual rats, 10 mg/kg",32700 ng/mL and 33300 ng/mL
same,Concentration (ng/ml) Rat 1-3,"10 mg/kg SC, 4 h, individual rats, 10 mg/kg",29600 ng/mL and 25400 ng/mL
same,Concentration (ng/ml) Rat 1-3,"10 mg/kg SC, 8 h, individual rats, 10 mg/kg",25000 ng/mL and 23000 ng/mL
same,Concentration (ng/ml) Rat 1-3,"10 mg/kg SC, 24 h, individual rats, 10 mg/kg",14100 ng/mL and 12600 ng/mL
same,Concentration (ng/ml) Rat 1-3,"10 mg/kg SC, 48 h, individual rats, 10 mg/kg",7700 ng/mL and 5620 ng/mL
same,Concentration (ng/ml) Rat 1-3,"10 mg/kg SC, 72 h, individual rats, 10 mg/kg",1850 ng/mL and 4200 ng/mL and 2440 ng/mL
same,AUC_% Extrap_obs,[1],6.74% and 15.0% and 8.08%
same,AUClast,[1],944.488 µg·h/mL and 811.185 µg·h/mL
same,AUClast/D,[1],71600 kg·ng·h/mL/mg and 94400 kg·ng·h/mL/mg and 81100 kg·ng·h/mL/mg
same,AUClnf,[1],1110.949 µg·h/mL and 882.526 µg·h/mL
same,Cmax,[1],32.7 µg/mL and 33.3 µg/mL
same,MRTlnf_obs,[1],24.3 h and 36.3 h and 27.2 h
same,T1/2,[1],27.5 h and 20.3 h
same,AUC_% Extrap_obs Mean,"SC Dose 10 mg/kg, plasma, mean",9.9%
same,AUClast/D Mean,"SC Dose 10 mg/kg, plasma, mean",82400 kg·ng·h/mL/mg
same,MRTlnf_obs Mean,"SC Dose 10 mg/kg, plasma, mean",29.3 h
same,Tmax,"Sprague-Dawley, rat, SC Dose 10 mg/kg, plasma, individual rats, read-out: Tmax",2 h
same,concentration at 0.25 h,[2],23100 ng/mL
same,concentration at 0.25 h,[3],22000 ng/mL
same,concentration at 0.5 h,[2],25700 ng/mL
same,concentration at 0.5 h,[3],27700 ng/mL
same,concentration at 1 h,[2],30700 ng/mL
same,concentration at 1 h,[3],31800 ng/mL
same,concentration at 2 h,"male, Sprague-Dawley, rat, plasma, sc, 10 mg/kg, 10 mg/kg SC, 2 h, individual rats, read-out: Concentration (ng/ml) Rat 1-3",31300 ng/mL
same,concentration at 2 h,"male, Sprague-Dawley, rat, plasma, sc, 10 mg/kg, 10 mg/kg SC, 2 h, mean, read-out: Concentration Mean",32400 ng/mL
same,concentration at 4 h,"male, Sprague-Dawley, rat, plasma, sc, 10 mg/kg, 10 mg/kg SC, 4 h, individual rats, read-out: Concentration (ng/ml) Rat 1-3",25700 ng/mL
same,concentration at 4 h,"male, Sprague-Dawley, rat, plasma, sc, 10 mg/kg, 10 mg/kg SC, 4 h, mean, read-out: Concentration Mean",26900 ng/mL
same,concentration at 8 h,"male, Sprague-Dawley, rat, plasma, sc, 10 mg/kg, 10 mg/kg SC, 8 h, individual rats, read-out: Concentration (ng/ml) Rat 1-3",22700 ng/mL
same,concentration at 8 h,"male, Sprague-Dawley, rat, plasma, sc, 10 mg/kg, 10 mg/kg SC, 8 h, mean, read-out: Concentration Mean",23600 ng/mL
same,concentration at 24 h,"male, Sprague-Dawley, rat, plasma, sc, 10 mg/kg, 10 mg/kg SC, 24 h, individual rats, read-out: Concentration (ng/ml) Rat 1-3",10300 ng/mL
same,concentration at 24 h,"male, Sprague-Dawley, rat, plasma, sc, 10 mg/kg, 10 mg/kg SC, 24 h, mean, read-out: Concentration Mean",12300 ng/mL
same,concentration at 48 h,"male, Sprague-Dawley, rat, plasma, sc, 10 mg/kg, 10 mg/kg SC, 48 h, individual rats, read-out: Concentration (ng/ml) Rat 1-3",4080 ng/mL
same,concentration at 48 h,"male, Sprague-Dawley, rat, plasma, sc, 10 mg/kg, 10 mg/kg SC, 48 h, mean, read-out: Concentration Mean",5770 ng/mL
same,concentration at 72 h,"male, Sprague-Dawley, rat, plasma, sc, 10 mg/kg, 10 mg/kg SC, 72 h, mean",2.83 µg/mL
same,AUC(0-t),"male, Sprague-Dawley, rat, plasma, sc, 10 mg/kg, SC Dose 10 mg/kg, plasma, individual rats, read-out: AUClast",716 µg·h/mL
same,AUC,"male, Sprague-Dawley, rat, plasma, sc, 10 mg/kg, SC Dose 10 mg/kg, plasma, individual rats, read-out: AUClnf",767 µg·h/mL
same,Cmax,"male, Sprague-Dawley, rat, plasma, sc, 10 mg/kg, SC Dose 10 mg/kg, plasma, individual rats, read-out: Cmax",31.3 µg/mL
same,half-life,"male, Sprague-Dawley, rat, plasma, sc, 10 mg/kg, SC Dose 10 mg/kg, plasma, individual rats, read-out: T1/2 (converted)",19.4 h
same,AUC(0-t),"male, Sprague-Dawley, rat, plasma, sc, 10 mg/kg, SC Dose 10 mg/kg, plasma, mean, read-out: AUClast Mean",824 µg·h/mL
same,AUC,"male, Sprague-Dawley, rat, plasma, sc, 10 mg/kg, SC Dose 10 mg/kg, plasma, mean, read-out: AUClnf Mean",920 µg·h/mL
same,Cmax,"male, Sprague-Dawley, rat, plasma, sc, 10 mg/kg, SC Dose 10 mg/kg, plasma, mean, read-out: Cmax Mean",32.4 µg/mL
same,half-life,"male, Sprague-Dawley, rat, plasma, sc, 10 mg/kg, SC Dose 10 mg/kg, plasma, mean, read-out: T1/2 Mean (converted)",22.4 h
